Here are results for 15 compounds from US20240336659A1, “CELL-PENETRATING PEPTIDE, ANTI-CANCER PEPTIDE, AND PHARMACEUTICAL COMPOSITION FOR PREVENTING OR TREATING CANCER, COMPRISING SAME” (ONECUREGEN CO., LTD., priority 2021, published 2024).

Data set [1] deals with lung normal cell line CCD39. The settings on record: CCD39, 30 μM and 60 μM. On the procedure: (§1) To analyze the cytotoxicity of cell therapeutic peptide fragments on normal cell lines, lung normal cell lines WI38 and CCD39 were treated with OCP9 (SEQ ID NO: 16), OCP9-VGLLIS84-7CC (SEQ ID NO: 44), OCP9-VGLLIS84-9CC (SEQ ID NO: 46) and OCP9-VGLL1S84-11CC (SEQ ID NO: 48) at 30 μM and 60 μM, respectively, and the growth degrees of the cell lines were evaluated.

Data set [2] deals with lung normal cell line WI38. The settings on record: WI38, 30 μM and 60 μM. The procedure: as §1
Data set [3] concerns stomach cancer cell line NUGC3. The data set is described as follows: Cell growth inhibition (sulforhodamine B staining). The settings on record: for cancer cell growth inhibitory effect: NUGC3, 10 μM screening of Table 4 peptides; for cell permeability (as concluded from the growth inhibition screening): NUGC3, 10 μM screening; for cancer cell growth inhibitory efficacy: NUGC3, treated for each concentration. The class given is cell-based. On the procedure: (§2) Specifically, in order to confirm cell growth ability, a stomach cancer cell line NUGC3 and a breast cancer cell line SK-BR-3 were each subcultured in a 96-well plate, and the next day, peptide fragments Con, 7, and CC of Table 2 were treated with 100 μM each to the cell lines. After 72 hours, the cells were immobilized with a 10% trichloroacetic acid solution, and then stained the cell with a 0.4% sulforhodamine B solution for 1 hour, washed with acetic acid, and dried. Thereafter, the dried cells were dissolved in a 10 mM Tris solution and absorbance was measured at 510 nm using an ELISA plate reader.
In order to compare the cancer cell growth inhibitory effects of cancer therapeutic peptides according to cell-penetrating peptides, the stomach cancer cell line NUGC3 was treated with 10 μM each of cancer therapeutic peptide fragments in Table 4, and the cancer cell growth inhibitory effects were screened in the same manner as in Example 1.
Specifically, in order to confirm the cancer cell inhibition enhancing effect by enhancing the cell permeability of OCP5 among the novel synthesized CPPs, a cancer therapeutic peptide fragment represented by SEQ ID NO: 6 including the existing TAT and a cancer therapeutic peptide fragment represented by SEQ ID NO: 31 including the novel synthesized OCP5 were used. The stomach cancer cell lines NUGC3 and AGS, the breast cancer cell line SK-BR-3, and the pancreatic cancer cell line Capan-1 were treated with 25 μM SEQ ID NO: 6 and 100 μM SEQ ID NO: 31 for 72 hours, respectively, and the cancer cell growth inhibitory effects were compared in the same manner as in Example 1. […] Through this, it was confirmed that the novel CPP may be applied more effectively than the existing TAT to inhibit the cancer cell growth by the anticancer peptides.
(§3) To analyze the cancer cell growth inhibitory effect according to a length of the anticancer peptide fragment, OCP9-VGLLIS84-7 (SEQ ID NO: 43), OCP9-VGLLIS84-9CC (SEQ ID NO: 46), and OCP9-VGLLIS84-15 (SEQ ID NO: 49) were treated for each concentration to analyze the growth inhibitory effects of stomach cancer cell lines NUGC3 and NCI-N87. When stomach cancer cells were treated with cancer therapeutic peptides, the cancer cell growth inhibitory efficacy was shown in a concentration-dependent manner. In addition, it was confirmed that the growth inhibitory effect on the stomach cancer cell lines increased as the length of the anticancer peptide fragment increased (FIG. 7).
Specifically, the cancer cell growth inhibitory effect according to partial or entire cyclization of the anticancer peptide fragment was analyzed. The stomach cancer cell line NUGC3 was treated with a CPP fragment OCP9 (SEQ ID NO: 16), a partially cyclized sequence […] (SEQ ID NO: 33), or a sequence OCP9-VGLLIS84-7CC (SEQ ID NO: 40) including an entirely cyclized anticancer peptide at different concentrations of 1, 2.5, 5, 10, and 20 μM, respectively, and the cancer cell growth inhibitory effects were compared in the same manner as in Example 1.

The subject of another data set is cell line NUGC3. The data set is described as follows: Cell permeability of FITC-conjugated peptides by FACS. The settings on record: NUGC3, 1.5 or 2.5 μM FITC-conjugated peptide, 3 hours; compared to TAT. It counts as cell-based. The procedure: To quantitatively measure the cell permeability of the novel synthesized cell-penetrating peptides, 1.5 or 2.5 μM FITC-conjugated peptides were administered to the cell line NUGC3 or the normal cell line WI38, and after 3 hours, the amounts of FITC present in the cells were measured by FACS.

The test system of data set [4] is stomach cancer cell lines NUGC3. The data set is described as follows: Mouse xenograft experiment (tumor formation). The class given is in vivo, Balb-c/nude mouse. The settings on record: intraperitoneally 10 mg/kg once a day. The procedure: A mouse xenograft experiment was performed to analyze a tumor formation inhibitory effect of cancer therapeutic peptide fragments. Specifically, 5×10^6 stomach cancer cell lines NUGC3 were transplanted by subcutaneous injection into a flank site of a 6-week-old female Balb-c/nude mouse, and after one week (average tumor size 100 mm^3), Vehicle (0.9% saline), OCP5 (SEQ ID NO: 12), OCP5-VGLL1S84-15C (SEQ ID NO: 29), or OCP5-VGLL1S84-7C (SEQ ID NO: 33) was each administered intraperitoneally at 10 mg/kg once a day. Tumor size was measured with a digital caliper at 2-day intervals from the start of drug administration, and the tumor size (tumor size (mm^3)=long axis x short axis2) was calculated. The experiment was terminated when the average tumor size of the OCP5-administered group was 1,000 mm3, and then the tumor was extracted, and the tumor weight was measured.

For data set [5], the system named is stomach cancer cell line NCI-N87. The data set is described as follows: Cell growth inhibition (sulforhodamine B staining). The class given is cell-based. The settings on record: NCI-N87, treated for each concentration. The procedure:
as §2, §3

Positions of bridges follow the written chain, without caps; N, C: chain ends. Residues, ends and D or L forms follow the SMILES beside them. No end group written: not given here.

Turning to `CC[C@H](C)[C@@H]1NC(=O)[C@H](CCCNC(=N)N)NC(=O)[C@H](Cc2ccccc2)NC(=O)[C@H]([C@@H](C)CC)NC(=O)[C@H]([C@@H](C)CC)NC(=O)[C@H](CO)NC(=O)[C@@H](N)CSSC[C@@H](C(=O)O)NC(=O)[C@H](CCCCN)NC(=O)[C@H]([C@@H](C)O)NC(=O)[C@H](Cc2c[nH]c3ccccc23)NC(=O)[C@@H]2CCCN2C(=O)[C@H](CO)NC(=O)[C@H](CO)NC(=O)[C@H](Cc2ccc(O)cc2)NC(=O)[C@H](CCCNC(=N)N)NC(=O)[C@H](CCCNC(=N)N)NC(=O)[C@H](CCCNC(=N)N)NC(=O)[C@H](CCCNC(=N)N)NC(=O)[C@H](CCCNC(=N)N)NC(=O)[C@H](Cc2ccccc2)NC1=O` [OCP9-VGLL1S84-7CC, CSIIFRIFRRRRR-YSSPWTKC] (HELM PEPTIDE1{C.S.I.I.F.R.I.F.R.R.R.R.R.Y.S.S.P.W.T.K.C}$PEPTIDE1,PEPTIDE1,1:R3-21:R3$$$V2.0), the “cytotoxicity (growth inhibitory or abnormal effect)” value in data set [1] and in data set [2] was “no cytotoxicity” throughout.

For `CC[C@H](C)[C@@H]1NC(=O)[C@H](CCCNC(=N)N)NC(=O)[C@H](Cc2ccccc2)NC(=O)[C@H]([C@@H](C)CC)NC(=O)[C@H]([C@@H](C)CC)NC(=O)[C@H](CO)NC(=O)[C@@H](N)CSSC[C@@H](C(=O)O)NC(=O)[C@H](CCCCN)NC(=O)[C@H]([C@@H](C)O)NC(=O)[C@H](Cc2c[nH]c3ccccc23)NC(=O)[C@@H]2CCCN2C(=O)[C@H](CO)NC(=O)[C@H](CO)NC(=O)[C@H](Cc2ccc(O)cc2)NC(=O)[C@H](CCCNC(=N)N)NC(=O)[C@H](Cc2c[nH]c3ccccc23)NC(=O)[C@H](CCCNC(=N)N)NC(=O)[C@H](CCCNC(=N)N)NC(=O)[C@H](CCCNC(=N)N)NC(=O)[C@H](CCCNC(=N)N)NC(=O)[C@H](CCCNC(=N)N)NC(=O)[C@H](Cc2ccccc2)NC1=O` [OCP9-VGLL1S84-9CC, CSIIFRIFRRRRR-WRYSSPWTKC] (HELM PEPTIDE1{C.S.I.I.F.R.I.F.R.R.R.R.R.W.R.Y.S.S.P.W.T.K.C}$PEPTIDE1,PEPTIDE1,1:R3-23:R3$$$V2.0), the “cytotoxicity (growth inhibitory or abnormal effect)” value in data set [1] and in data set [2] was “no cytotoxicity” throughout.

As for `CC[C@H](C)[C@@H]1NC(=O)[C@H](CCCNC(=N)N)NC(=O)[C@H](Cc2ccccc2)NC(=O)[C@H]([C@@H](C)CC)NC(=O)[C@H]([C@@H](C)CC)NC(=O)[C@H](CO)NC(=O)[C@@H](N)CSSC[C@@H](C(=O)O)NC(=O)[C@H](CCCCN)NC(=O)[C@H]([C@@H](C)O)NC(=O)[C@H](Cc2c[nH]c3ccccc23)NC(=O)[C@@H]2CCCN2C(=O)[C@H](CO)NC(=O)[C@H](CO)NC(=O)[C@H](Cc2ccc(O)cc2)NC(=O)[C@H](CCCNC(=N)N)NC(=O)[C@H](Cc2c[nH]c3ccccc23)NC(=O)[C@H](CCC(N)=O)NC(=O)[C@H](CC(N)=O)NC(=O)[C@H](CCCNC(=N)N)NC(=O)[C@H](CCCNC(=N)N)NC(=O)[C@H](CCCNC(=N)N)NC(=O)[C@H](CCCNC(=N)N)NC(=O)[C@H](CCCNC(=N)N)NC(=O)[C@H](Cc2ccccc2)NC1=O` [OCP9-VGLL1S84-11CC, CSIIFRIFRRRRR-NQWRYSSPWTKC] (HELM PEPTIDE1{C.S.I.I.F.R.I.F.R.R.R.R.R.N.Q.W.R.Y.S.S.P.W.T.K.C}$PEPTIDE1,PEPTIDE1,1:R3-25:R3$$$V2.0), the “cytotoxicity (growth inhibitory or abnormal effect)” value in data set [1] and in data set [2] was “no cytotoxicity” each time.

Take KKKKRKVRGDSI (OCP15): the “cancer cell growth inhibitory effect” value in data set [3] is on record as “excluding”.

KKKKRKVSIIFIRGD (OCP16): the “cancer cell growth inhibitory effect” value in data set [3] was “excluding”.

Take KKKKRKVSIIFRIF (OCP18): the “intracellular permeability (amount of FITC in the cells)” value (“intracellular permeability” below) with cell line NUGC3 is recorded as “significantly increased”.

As to KKKKRKVSIRGD (OCP17), the “cancer cell growth inhibitory effect” value in data set [3] was “excluding”.

Turning to RRRRRGDSIIF (OCP13), in data set [3], the “cancer cell growth inhibitory effect” value is given as “excluding”.

For RRRRRSIIFRGD (OCP12), the “cancer cell growth inhibitory effect” value in data set [3] is reported as “excluding”.

SIIFRIFLHLQK (OCP1): the “cell permeability (as concluded from the growth inhibition screening)” value in data set [3] is given as “increased”.

As to “SIIFRIFLHLQK-CYSSPWTKC (SIIFRIFLHLQKCYSSPWTKC; disulfide 13-21) [SEQ ID NO: 31]”, the “cancer cell growth inhibitory effect” value in data set [3] is on record as “significant cancer cell growth inhibitory effect”.

Regarding SIIFRIFLHLQKRRR (OCP5), in data set [3], the “cell permeability (as concluded from the growth inhibition screening)” value was “increased” and the “cancer cell growth inhibitory effect” value is “increased”. Also, the “intracellular permeability” value in the data set with cell line NUGC3 is “significantly increased”. For the same compound, the “effect on tumor formation compared to the vehicle group” value in data set [4] is recorded as “did not affect the tumor formation”.

For SIIFRIFRRRRR (OCP9), in the data set on cell line NUGC3, the “intracellular permeability” value is reported as “significantly increased”.

On to “SIIFRIFRRRRR-PNQWRYSSPWTKPQP (SIIFRIFRRRRRPNQWRYSSPWTKPQP; OCP9-VGLL1S84-15) [OCP9-VGLLIS84-15]”, for which the “cancer cell growth inhibitory efficacy” value in data set [3] and in data set [5] was “concentration-dependent” each time.

In the case of “SIIFRIFRRRRR-YSSPWTK (SIIFRIFRRRRRYSSPWTK; OCP9-VGLL1S84-7) [OCP9-VGLLIS84-7]”, the “cancer cell growth inhibitory efficacy” value in data set [3] and in data set [5] was “concentration-dependent” each time.
